# Measurements: patent US8889874B2, “Imidazolone-chalcone derivatives as potential anticancer agent and process for the preparation thereof” (Council of Scientific and Industrial Research, priority 2010, dated 2014)
# Where two headings read alike, the source gives them in different places.
# Experiments:
# Experiment in all cases: NCI anticancer screen, SRB assay, 48 h
# Type in all cases: cell-based, human
# TD-47D (breast) = conditions: Homo sapiens
# Method in brief: (§1)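 Sulforhodamine B protein assay read cell growth after 48 h of continuous compound exposure. Dose-response curves per cell line used at least five 10-fold-diluted concentrations, within a panel of fifty-three human lines from nine tumour types.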
# MDA-MB-231/ATCC (breast) = conditions: Homo sapiens
# Method in brief: as §1
# SNB-19 (CNS) = conditions: Homo sapiens
# Method in brief: as §1
# [1] = tested on: K-562 (leukemia cell line); conditions: Homo sapiens
# Method in brief: as §1
# COLO 205 (colon) = conditions: Homo sapiens, COLO 205
# Method in brief: as §1
# OVCAR-5 (ovarian) = conditions: Homo sapiens
# Method in brief: as §1
# ACHN (renal) = conditions: Homo sapiens
# Method in brief: as §1
# SN12C (renal) = conditions: Homo sapiens, SN12C
# Method in brief: as §1
# [2] = tested on: EKVX (non-small cell lung); conditions: Homo sapiens
# Method in brief: as §1
# UACC-62 (melanoma) = conditions: Homo sapiens
# Method in brief: as §1
# [3] = tested on: NCI-H23 (non-small cell lung); conditions: Homo sapiens
# Method in brief: as §1
# SNB-75 (CNS) = conditions: Homo sapiens
# Method in brief: as §1
# KM12 (colon) = conditions: Homo sapiens
# Method in brief: as §1
# SK-MEL-2 (melanoma) = conditions: Homo sapiens
# Method in brief: as §1
# SF-268 (CNS) = conditions: Homo sapiens
# Method in brief: as §1
# [4] = tested on: NCI-H460 (non-small cell lung); conditions: Homo sapiens
# Method in brief: as §1
# HCT-15 (colon) = conditions: Homo sapiens
# Method in brief: as §1
# MALME-3M (melanoma) = conditions: Homo sapiens
# Method in brief: as §1
# SF-539 (CNS) = conditions: Homo sapiens
# Method in brief: as §1
# BT-549 (breast) = conditions: Homo sapiens
# Method in brief: as §1
# TK-10 (renal) = conditions: Homo sapiens
# Method in brief: as §1
# HT29 (colon) = conditions: Homo sapiens
# Method in brief: as §1
# LOX IMVI (melanoma) = conditions: Homo sapiens
# Method in brief: as §1
# [5] = tested on: HOP-62 (non-small cell lung); conditions: Homo sapiens
# Method in brief: as §1
# NCI/ADR-RES (ovarian) = conditions: Homo sapiens, NCI/ADR-RES
# Method in brief: as §1
# HS 578T (breast) = conditions: Homo sapiens
# Method in brief: as §1
# HCC-2998 (colon) = conditions: Homo sapiens
# Method in brief: as §1
# M14 (melanoma) = conditions: Homo sapiens
# Method in brief: as §1
# [6] = tested on: NCI-H226 (non-small cell lung); conditions: Homo sapiens
# Method in brief: as §1
# UACC-257 (melanoma) = conditions: Homo sapiens
# Method in brief: as §1
# [7] = tested on: NCI-H522 (non-small cell lung); conditions: Homo sapiens
# Method in brief: as §1
# [8] = tested on: HOP-92 (non-small cell lung); conditions: Homo sapiens
# Method in brief: as §1
# SK-OV-3 (ovarian) = conditions: Homo sapiens
# Method in brief: as §1
# OVCAR-8 (ovarian) = conditions: Homo sapiens
# Method in brief: as §1
# CAKI-1 (renal) = conditions: Homo sapiens
# Method in brief: as §1
# OVCAR-3 (ovarian) = conditions: Homo sapiens
# Method in brief: as §1
# [9] = 48 h exposure, SRB, read-out: GI50
# [10] = read-out: pGI50 (-log of molar concentration causing 50% inhibition of net cell growth) (converted)
smiles,measurement,setting,value
"COc1cc(/C=C/C(=O)c2cccc(-n3cc(-c4ccccc4)[nH]c3=O)c2)cc(OC)c1OC [5a, 4-phenyl-1-3-[(E)-3-(3,4,5-trimethoxyphenyl)-2-propenoyl]phenyl-2,3-dihydro-1H-2-imidazolone]",GI50,TD-47D (breast); [9],2190 nM
same,GI50,TD-47D (breast); [10],2190 nM
same,GI50,MDA-MB-231/ATCC (breast); [9],2170 nM
same,GI50,MDA-MB-231/ATCC (breast); [10],2190 nM
same,GI50,SNB-19 (CNS); [9],2350 nM
same,GI50,SNB-19 (CNS); [10],2340 nM
same,GI50,"[1]; K562, 48 h exposure, SRB, read-out: GI50",500 nM
same,GI50,"[1]; K562, read-out: pGI50 (-log of molar concentration causing 50% inhibition of net cell growth) (converted)",501 nM
same,GI50,"COLO 205 (colon); COLO205, read-out: pGI50 (-log of molar concentration causing 50% inhibition of net cell growth) (converted)",1510 nM
same,GI50,COLO 205 (colon); [9],1510 nM
same,GI50,OVCAR-5 (ovarian); [9],1880 nM
same,GI50,OVCAR-5 (ovarian); [10],1860 nM
same,GI50,ACHN (renal); [9],1600 nM
same,GI50,ACHN (renal); [10],1580 nM
same,GI50,"SN12C (renal); SN 12C, read-out: pGI50 (-log of molar concentration causing 50% inhibition of net cell growth) (converted)",2090 nM
same,GI50,SN12C (renal); [9],2090 nM
same,GI50,[2]; [9],2300 nM
same,GI50,[2]; [10],2290 nM
same,GI50,UACC-62 (melanoma); [9],1520 nM
same,GI50,UACC-62 (melanoma); [10],1510 nM
same,GI50,[3]; [9],1430 nM
same,GI50,[3]; [10],1450 nM
same,GI50,SNB-75 (CNS); [9],4470 nM
same,GI50,SNB-75 (CNS); [10],4470 nM
same,GI50,KM12 (colon); [9],1370 nM
same,GI50,KM12 (colon); [10],1380 nM
same,GI50,SK-MEL-2 (melanoma); [9],2060 nM
same,GI50,SK-MEL-2 (melanoma); [10],2040 nM
same,GI50,SF-268 (CNS); [9],1920 nM
same,GI50,SF-268 (CNS); [10],1910 nM
same,GI50,[4]; [9],1400 nM
same,GI50,[4]; [10],1410 nM
same,GI50,HCT-15 (colon); [9],1130 nM
same,GI50,HCT-15 (colon); [10],1120 nM
same,GI50,"MALME-3M (melanoma); Malme-3M, read-out: pGI50 (-log of molar concentration causing 50% inhibition of net cell growth) (converted)",1320 nM
same,GI50,"MALME-3M (melanoma); MALME-3M, 48 h exposure, SRB, read-out: GI50",1310 nM
same,GI50,SF-539 (CNS); [9],1680 nM
same,GI50,SF-539 (CNS); [10],1700 nM
same,GI50,BT-549 (breast); [9],1930 nM
same,GI50,BT-549 (breast); [10],1950 nM
same,GI50,TK-10 (renal); [9],3020 nM
same,GI50,TK-10 (renal); [10],3020 nM
same,GI50,"HT29 (colon); HT-29, 48 h exposure, SRB, read-out: GI50",660 nM
same,GI50,"HT29 (colon); HT-29, read-out: pGI50 (-log of molar concentration causing 50% inhibition of net cell growth) (converted)",661 nM
same,GI50,LOX IMVI (melanoma); [9],480 nM
same,GI50,LOX IMVI (melanoma); [10],479 nM
same,GI50,[5]; [9],4120 nM
same,GI50,[5]; [10],4070 nM
same,GI50,"NCI/ADR-RES (ovarian); NCl/ADR-RES, 48 h exposure, SRB, read-out: GI50",1100 nM
same,GI50,NCI/ADR-RES (ovarian); [10],1100 nM
same,GI50,HS 578T (breast); [9],3410 nM
same,GI50,HS 578T (breast); [10],3390 nM
same,GI50,HCC-2998 (colon); [9],1260 nM
same,GI50,HCC-2998 (colon); [10],1260 nM
same,GI50,M14 (melanoma); [9],1350 nM
same,GI50,M14 (melanoma); [10],1350 nM
same,GI50,[6]; [9],14600 nM
same,GI50,[6]; [10],14500 nM
same,GI50,UACC-257 (melanoma); [9],1520 nM
same,GI50,UACC-257 (melanoma); [10],1510 nM
same,GI50,[7]; [9],950 nM
same,GI50,[7]; [10],955 nM
same,GI50,[8]; [9],10800 nM
same,GI50,[8]; [10],10700 nM
same,GI50,SK-OV-3 (ovarian); [9],3270 nM
same,GI50,SK-OV-3 (ovarian); [10],3240 nM
same,GI50,OVCAR-8 (ovarian); [9],1620 nM
same,GI50,OVCAR-8 (ovarian); [10],1620 nM
same,GI50,CAKI-1 (renal); [9],1750 nM
same,GI50,CAKI-1 (renal); [10],1740 nM
same,GI50,OVCAR-3 (ovarian); [9],1230 nM
same,GI50,OVCAR-3 (ovarian); [10],1230 nM
